Results taken from patent publication US20080234254A1, “Inhibitors of Histone Deacetylase” (UNIVERSITY OF LEEDS, priority 2004, published 2008).
Read-outs that look alike come from different tables or passages of the source.

Legend:
Assay type in all cases: cell-based
RPMI-8226 = experiment: Screening against cancer cell lines: RPMI-8226 (Leukaemia)
Source text: (§1) Screening of Benzamide Derivatives Against Cancer Cell Lines Tables 1 and 2 tabulate by way of example the results obtained for compounds (4) and (6).

SR = experiment: Screening against cancer cell lines: SR (Leukaemia); details: Leukaemia
Source text: as §1

NCI-H23 = experiment: Screening against cancer cell lines: NCI-H23 (Non-Small Cell Lung)
Source text: as §1
(§2) 8 non-small cell lung cancer cell lines were screened against both compound (4) and MS275.

NCI-H522 = experiment: Screening against cancer cell lines: NCI-H522 (Non-Small Cell Lung)
Source text: as §1, §2

HCC-2998 = experiment: Screening against cancer cell lines: HCC-2998 (Colon)
Source text: as §1
(§3) 6 colon cancer cell lines were screened against both compound (4) and MS275.

HCT-15 = experiment: Screening against cancer cell lines: HCT-15 (Colon)
Source text: as §1, §3

LOX IMVI = experiment: Screening against cancer cell lines: LOX IMVI (Melanoma)
Source text: as §1
(§4) 7 melanoma cancer cell lines were screened against both compound (4) and MS275.

UACC-257 = experiment: Screening against cancer cell lines: UACC-257 (Melanoma)
Source text: as §1, §4

UACC-62 = experiment: Screening against cancer cell lines: UACC-62 (Melanoma)
Source text: as §1

IGROV1 = experiment: Screening against cancer cell lines: IGROV1 (Ovarian)
Source text: as §1
(§5) 6 ovarian cancer cell lines were screened against both compound (4) and MS275.

OVCAR-8 = experiment: Screening against cancer cell lines: OVCAR-8 (Ovarian)
Source text: as §1

ACHN = experiment: Screening against cancer cell lines: ACHN (Renal)
Source text: as §1
(§6) 7 renal cancer cell lines were screened against both compound (4) and MS275.

RXF 393 = experiment: Screening against cancer cell lines: RXF 393 (Renal)
Source text: as §1, §6

SN12C = experiment: Screening against cancer cell lines: SN12C (Renal)
Source text: as §1, §6

NCI/ADR-RES = experiment: Screening against cancer cell lines: NCI/ADR-RES (Breast)
Source text: as §1
(§7) 7 breast cancer cell lines were screened against both compound (4) and MS275.

MDA-MB-231/ATCC = experiment: Screening against cancer cell lines: MDA-MB-231/ATCC (Breast)
Source text: as §1, §7

MDA-MB-435 = experiment: Screening against cancer cell lines: MDA-MB-435 (Breast)
Source text: as §1, §7

KM-12 = experiment: Comparison test versus MS275: KM-12 (colon cancer); details: Homo sapiens, KM12, read-out: potency (quantity not named; values match GI50 of Table 1)
Source text: as §3

786-0 = experiment: Comparison test versus MS275: 786-0 (renal cancer); details: Homo sapiens, read-out: potency (quantity not named; values match GI50 of Table 1)
Source text: as §6

SK-OV-3 = experiment: Comparison test versus MS275: SK-OV-3 (ovarian cancer); details: Homo sapiens, read-out: potency (quantity not named; values match GI50 of Table 1)
Source text: as §5

OVCAR-4 = experiment: Comparison test versus MS275: OVCAR-4 (ovarian cancer); details: Homo sapiens, read-out: potency (quantity not named; values match GI50 of Table 1)
Source text: as §5

colon cancer cell lines = experiment: Comparison test versus MS275: 6 colon cancer cell lines; details: in 3 cell lines of 6 colon cancer cell lines screened
Source text: as §3

[1] = tested on: non-small cell lung cancer cell lines; experiment: Comparison test versus MS275: 8 non-small cell lung cancer cell lines; details: in 2 cell lines of 8 non-small cell lung cancer cell lines screened
Source text: as §2

renal cancer cell lines = experiment: Comparison test versus MS275: 7 renal cancer cell lines; details: in 4 cell lines of 7 renal cancer cell lines screened
Source text: as §6

[2] = tested on: melanoma cancer cell lines; experiment: Comparison test versus MS275: 7 melanoma cancer cell lines; details: in 3 cell lines of 7 melanoma cancer cell lines screened
Source text: as §4

[3] = tested on: ovarian cancer cell lines; experiment: Comparison test versus MS275: 6 ovarian cancer cell lines; details: in 3 cell lines of 6 ovarian cancer cell lines screened
Source text: as §5

breast cancer cell lines = experiment: Comparison test versus MS275: 7 breast cancer cell lines; details: in 3 cell lines of 7 breast cancer cell lines screened
Source text: as §7

cancer cell lines = experiment: Screening of benzamide derivatives against cancer cell lines (summary); details: summary of Tables 1 and 2
Source text: as §1

[4] = Homo sapiens, Table 1, read-out: LC50 (the source's name)
[5] = Homo sapiens, Renal, Table 1, read-out: GI50
[6] = Homo sapiens, Renal, Table 1, read-out: LC50 (the source's name)
[7] = Homo sapiens, renal cancer, comparison versus MS275, read-out: potency (quantity not named; values match GI50 of Table 1)
[8] = Homo sapiens, Breast, Table 1, read-out: GI50
[9] = Homo sapiens, Breast, Table 1, read-out: LC50 (the source's name)
[10] = Homo sapiens, breast cancer, comparison versus MS275, read-out: potency (quantity not named; values match GI50 of Table 1)

## C=C(CN1CCc2ccccc2C1)c1ccc(C(=O)Nc2ccccc2N)cc1 [Compound (4), N-(2-Amino-phenyl)-4-[1-(3,4-dihydroisoquinolin-2(1H)-ylmethyl)vinyl]benzamide]
RPMI-8226; Homo sapiens, Table 1
  GI50: 510 nM
RPMI-8226; [4]
  CC50: > 50000 nM
RPMI-8226; Table 1
  TGI: — (‘—’ indicates a concentration exceeding 50 μM.)
SR; Homo sapiens, Table 1, read-out: GI50
  GI50: 484 nM
SR; [4]
  CC50: > 50000 nM
SR; Table 1
  TGI: — (‘—’ indicates a concentration exceeding 50 μM.)
NCI-H23; Homo sapiens, NCI-H23, Non-Small Cell Lung, Table 1, read-out: GI50
  GI50: 178 nM
NCI-H23; Homo sapiens, NCI-H23, Non-Small Cell Lung, Table 1, read-out: LC50 (the source's name)
  CC50: 11400 nM
NCI-H23; Homo sapiens, NCI-H23, non-small cell lung cancer, comparison versus MS275, read-out: potency (quantity not named; values match GI50 of Table 1)
  GI50: 180 nM
NCI-H23; NCI-H23, Non-Small Cell Lung, Table 1
  TGI: 1500 nM
NCI-H522; Homo sapiens, NCI-H522, Non-Small Cell Lung, Table 1, read-out: GI50
  GI50: 220 nM
NCI-H522; Homo sapiens, NCI-H522, Non-Small Cell Lung, Table 1, read-out: LC50 (the source's name)
  CC50: 20800 nM
NCI-H522; Homo sapiens, NCI-H522, non-small cell lung cancer, comparison versus MS275, read-out: potency (quantity not named; values match GI50 of Table 1)
  GI50: 220 nM
NCI-H522; NCI-H522, Non-Small Cell Lung, Table 1
  TGI: 1400 nM
HCC-2998; HCC-2998, Colon, Table 1
  TGI: 400 nM
HCC-2998; Homo sapiens, HCC-2998, Colon, Table 1, read-out: GI50
  GI50: 90 nM
HCC-2998; Homo sapiens, HCC-2998, Colon, Table 1, read-out: LC50 (the source's name)
  CC50: 2000 nM
HCC-2998; Homo sapiens, HCC-2998, colon cancer, comparison versus MS275, read-out: potency (quantity not named; values match GI50 of Table 1)
  GI50: 90 nM
HCT-15; HCT-15, Colon, Table 1
  TGI: 7800 nM
HCT-15; Homo sapiens, HCT-15, Colon, Table 1, read-out: GI50
  GI50: 836 nM
HCT-15; Homo sapiens, HCT-15, Colon, Table 1, read-out: LC50 (the source's name)
  CC50: > 50000 nM
HCT-15; Homo sapiens, HCT-15, colon cancer, comparison versus MS275, read-out: potency (quantity not named; values match GI50 of Table 1)
  GI50: 840 nM
LOX IMVI; Homo sapiens, Melanoma, Table 1, read-out: GI50
  GI50: 99 nM
LOX IMVI; Homo sapiens, Melanoma, Table 1, read-out: LC50 (the source's name)
  CC50: 6400 nM
LOX IMVI; Homo sapiens, melanoma, comparison versus MS275, read-out: potency (quantity not named; values match GI50 of Table 1)
  GI50: 90 nM
LOX IMVI; Melanoma, Table 1
  TGI: 600 nM
UACC-257; Homo sapiens, UACC-257, Melanoma, Table 1, read-out: GI50
  GI50: 499 nM
UACC-257; Homo sapiens, UACC-257, Melanoma, Table 1, read-out: LC50 (the source's name)
  CC50: > 50000 nM
UACC-257; Homo sapiens, UACC-257, melanoma, comparison versus MS275, read-out: potency (quantity not named; values match GI50 of Table 1)
  GI50: 500 nM
UACC-257; UACC-257, Melanoma, Table 1
  TGI: 15500 nM
UACC-62; Homo sapiens, Table 1
  GI50: 666 nM
UACC-62; [4]
  CC50: 20700 nM
UACC-62; Table 1
  TGI: 2900 nM
IGROV1; Homo sapiens, IGROV-1, IGROV1, Ovarian, Table 1, read-out: GI50
  GI50: 245 nM
IGROV1; Homo sapiens, IGROV-1, IGROV1, Ovarian, Table 1, read-out: LC50 (the source's name)
  CC50: > 50000 nM
IGROV1; Homo sapiens, IGROV-1, IGROV1, ovarian cancer, comparison versus MS275, read-out: potency (quantity not named; values match GI50 of Table 1)
  GI50: 250 nM
IGROV1; IGROV1, Ovarian, Table 1
  TGI: 10500 nM
OVCAR-8; Homo sapiens, Table 1
  GI50: 768 nM
OVCAR-8; [4]
  CC50: > 50000 nM
OVCAR-8; Table 1
  TGI: 12500 nM
ACHN; [5]
  GI50: 844 nM
ACHN; [6]
  CC50: 14400 nM
ACHN; [7]
  GI50: 840 nM
ACHN; Renal, Table 1
  TGI: 2800 nM
RXF 393; Homo sapiens, RXF 393, Renal, Table 1, read-out: GI50
  GI50: 102 nM
RXF 393; Homo sapiens, RXF 393, Renal, Table 1, read-out: LC50 (the source's name)
  CC50: 46000 nM
RXF 393; Homo sapiens, RXF 393, renal cancer, comparison versus MS275, read-out: potency (quantity not named; values match GI50 of Table 1)
  GI50: 100 nM
RXF 393; RXF 393, Renal, Table 1
  TGI: 600 nM
SN12C; [5]
  GI50: 629 nM
SN12C; [6]
  CC50: 27000 nM
SN12C; [7]
  GI50: 630 nM
SN12C; Renal, Table 1
  TGI: 2700 nM
NCI/ADR-RES; Breast, Table 1
  TGI: 2000 nM
NCI/ADR-RES; [8]
  GI50: 613 nM
NCI/ADR-RES; [9]
  CC50: > 50000 nM
NCI/ADR-RES; [10]
  GI50: 610 nM
MDA-MB-231/ATCC; Breast, Table 1
  TGI: 2700 nM
MDA-MB-231/ATCC; [8]
  GI50: 748 nM
MDA-MB-231/ATCC; [9]
  CC50: 19200 nM
MDA-MB-231/ATCC; [10]
  GI50: 750 nM
MDA-MB-435; Homo sapiens, MDA-MB-435, Breast, Table 1, read-out: GI50
  GI50: 98 nM
MDA-MB-435; Homo sapiens, MDA-MB-435, Breast, Table 1, read-out: LC50 (the source's name)
  CC50: ~4000 nM
MDA-MB-435; Homo sapiens, MDA-MB-435, breast cancer, comparison versus MS275, read-out: potency (quantity not named; values match GI50 of Table 1)
  GI50: 90 nM
MDA-MB-435; MDA-MB-435, Breast, Table 1
  TGI: 600 nM
KM-12
  GI50: 1150 nM
786-0
  GI50: 1050 nM
SK-OV-3
  GI50: 1080 nM
OVCAR-4
  GI50: 1910 nM
Colon cancer cell lines
  potency over MS275: > 2 fold
[1]
  potency over MS275: > 2 fold
Renal cancer cell lines
  potency over MS275: > 2 fold
[2]
  potency over MS275: > 2 fold
[3]
  potency over MS275: > 2 fold
Breast cancer cell lines
  potency over MS275: > 2 fold
Cancer cell lines
  activity against cancer cell lines (in words): potently inhibited
